Columns and labels:
[1] = target: replication of MDV-1 by Qβ replicase (Escherichia virus Qbeta, UniProt P14647); test: Inhibition of MDV-1 replication by dyes in linear-phase Qβ replicase reactions; format: biochemical, bacteriophage Qβ; settings: for ability to inhibit the replication of MDV-1: linear-phase reactions, template RNA in excess over enzyme
Description: A number of dyes, including ethidium bromide, ethidium bromide homodimer, propidium iodide, proflavine, quinacrine, Hoescht 33258 (bis-benzamidine),dimidium bromide and acridine orange, were tested for their ability to inhibit the replication of MDV-1 in linear-phase reactions, i.e., where the template RNA is present in excess over the enzyme and the amount of replicated RNA thus increases linearly with time. […] One of the strongest inhibitors, propidium iodide, was selected for further study.

[2] = target: T1, replication of wild type MDV-1 RNA by Qβ replicase (Escherichia virus Qbeta, UniProt P14647); test: Effect of propidium iodide on replication of wild type MDV-1 RNA in a Qβ replicase preparation (32P-CTP incorporation time course); format: biochemical, bacteriophage Qβ
T1 construct: made in house
Description: Propidium iodide was tested for its effect on the replication of wild type RNA in a preparation of Qβ replicase. Propidium iodide in an amount of either 0, 1, or 3 μg/ml was added to a reaction buffer containing: 90 mM Tris HCl (pH7.5), 14 mM MgCl2, 0.4 mM each ATP, GTP, UTP, and CTP, and 10 μCi α- ^32 P-CTP. The Qβ replicase reaction was initiated in each sample by addition of 1.2 μg of Qβ replicase prepared according to the method of Eoyang and August, (1972), ibid. Aliquots of the reaction mixture were withdrawn every 5 minutes and spotted on DE81 filters (Schleicher & Schuell Inc., Keene, N.H.). The spotted filters were washed repeatedly with 0.5M NaPO4, (pH7.0) to remove unincorporated nucleotide. The filters were counted for Cerenkov radiation by standard procedures in a scintillation counter. Addition of propidium iodide delayed the point in time at which levels of incorporation resulting from the replication of wild type MDV-1 template became detectable.

Structure (SMILES) | ability to inhibit the replication of MDV-1 [1] | also measured
CN1CCN(c2ccc3[nH]c(-c4ccc5[nH]c(-c6ccc(O)cc6)nc5c4)nc3c2)CC1 [Hoescht 33258, Hoescht 33258 (bis-benzamidine)] | except Hoescht 33258, inhibited | 
CN(C)c1ccc2cc3ccc(N(C)C)cc3nc2c1 [acridine orange] | inhibited | 
C[n+]1c(-c2ccccc2)c2cc(N)ccc2c2ccc(N)cc21 [dimidium bromide] | inhibited | 
Cl.Cl.Nc1ccc2c(c1)c(-c1ccccc1)[n+](CCCNCCNCCC[n+]1c(-c3ccccc3)c3cc(N)ccc3c3ccc(N)cc31)c1cc(N)ccc21.[Cl-].[Cl-] [ethidium bromide homodimer] | inhibited | 
CC[n+]1c(-c2ccccc2)c2cc(N)ccc2c2ccc(N)cc21 [ethidium bromide] | inhibited | 
Nc1ccc2cc3ccc(N)cc3nc2c1 [proflavine] | inhibited | 
CC[N+](C)(CC)CCC[n+]1c(-c2ccccc2)c2cc(N)ccc2c2ccc(N)cc21 [propidium iodide] | inhibited | inhibition at 3 µg/mL ([1]; dye concentration about 3μg/ml): 70%; inhibition at 1 µg/mL ([2]; propidium iodide 1 μg/ml, read-out: inhibition of the rate of replication in the geometric phase): 20 to 50%; delay of the appearance of replicated product ([2]; propidium iodide 1 μg/ml, wild type MDV-1 template): 2 to 5 min; reduction in the rate of replication ([2]; propidium iodide 3μg/ml): ~3 fold; delay of the appearance of product ([2]; propidium iodide 3μg/ml, wild type MDV-1 template): about 20 minutes
CCN(CC)CCCC(C)Nc1c2ccc(Cl)cc2nc2ccc(OC)cc12 (stereo not shown) [quinacrine] | inhibited | 

Source: US5556751A, “Selective amplification system using Q-β replicase” (Amoco Corporation, priority 1994, dated 1996)
